{"source": "patent US5919780A", "about": "“Tricyclic inhibitors of protein farnesyltransferase” (Warner Lambert Company, priority 1997, dated 1999)", "key": {"Ras protein": {"test_system": "Ras protein", "experiment": "Gel Shift Assay against ras protein", "type": "cell-based", "conditions": "ras-transformed cells, 18-hour incubation; read-out: Gel Shift Minimum Effective Dose", "experimental": "Twenty-four hours after planting 2×10^6 ras-transformed cells per treatment condition, the farnesylation inhibitor is added at varying concentrations. Following an 18-hour incubation period, cells are lysed in phosphate-buffered saline containing 1% Triton X-100, 0.5% sodium deoxycholate, and 0.1% SDS, pH 7.4 in the presence of several protease inhibitors (PMSF, antipain, leupeptin, pepstatin A, and aprotinin all at 1 μg/mL). Ras protein is immunoprecipitated from the supernatants by the addition of 3 μg v-H-ras Ab-2 (Y13-259 antibody from oncogene Science). After overnight immunoprecipitation, 30 μL of a 50% protein G-Sepharose slurry (Pharmacia) is added followed by 45-minute incubation. Pellets are resuspended in 2× tris-glycine loading buffer (Novex) containing 5% B-mercaptoethanol and then denatured by 5 minutes boiling prior to electrophoresis on 14% Tris-glycine SDS gels. Using Western transfer techniques, proteins are transferred to nitrocellulose membranes followed by blocking in blocking buffer. Upon overnight incubation with primary antibody (pan-ras Ab-2 from Oncogene Science), an antimouse HRP conjugate secondary antibody (Amersham) is employed for detection of the ras protein. Blots are developed using ECL techniques (Amersham)."}, "[1]": {"target": "T1, rat brain farnesyl protein transferase (Rattus norvegicus, UniProt Q02293+Q04631)", "T1 construct": "40-fold purified rat brain farnesyl protein transferase; from tissue; host or cells: rat brain", "experiment": "Farnesyl Protein Transferase Inhibition (PFT/FPT inhibitory activity)", "type": "biochemical", "experimental": "The protein:farnesyltransferase (PFT) or farnesyl protein transferase (FPT) inhibitory activity of compounds of Formula I was assayed in HEPES buffer (pH 7.4) containing 5 mM potassium phosphate and 20 μM ZnCl2. The solution also contained 7 mM DTT, 1.2 mM MgCl2, 0.1 mM leupeptin, 0.1 mM pepstatin, and 0.2 mM phenylmethylsulfonyl fluoride. Assays were performed in 96 well plates (Wallec) and employed solutions composed of varying concentrations of a compound of Formula I in 100% DMSO. Upon addition of both substrates, radiolabeled farnesyl pyrophosphate ([1-^3 H], specific activity 15-30 Ci/mmol, final concentration 0.12 μM) and (biotinyl)-Ahe-Tyr-Lys-Cys-Val-Ile-Met peptide (final concentration 0.2 μM), the enzyme reaction was started by addition of 40-fold purified rat brain farnesyl protein transferase. After incubation at 37° for 30 minutes, the reaction was terminated by diluting the reaction 2.5-fold with a stop buffer containing 1.5M magnesium acetate, 0.2M H3 PO4, 0.5% BSA, and strepavidin beads (Amersham) at a concentration of 1.3 mg/mL. After allowing the plate to settle for 30 minutes at room temperature, radioactivity was quantitated on a microBeta counter (Model 1450, Wallec). Compounds of Formula I show IC50 values of 0.8 to 60 μM in this assay and are thus valuable inhibitors of protein:farnesyltransferase enzyme which may be used in the medical treatment of tissue proliferative diseases, including cancer and restenosis. The assay was also carried out without 5 mM potassium phosphate."}, "[2]": {"conditions": "Hepes with 5 mM PO4^-3, read-out: Farnesyl Protein Transferase Inhibition Hepes/5 mM PO4^-3 IC50"}, "[3]": {"conditions": "Hepes, without 5 mM phosphate, read-out: Farnesyl Protein Transferase Inhibition Hepes IC50"}}, "note": "pIC50: −log10 of the molar value. Like-named read-outs stand apart in the source and are kept apart here.", "data": [{"smiles": "CN1c2ccc(Cl)cc2N=C(NCc2cccnc2)c2ccccc21", "note": "[Example 15, (8-Chloro-5-methyl-5H-dibenzo[b,e][1,4]diazepin-11-yl)-pyridin-3-ylmethyl-amine]", "values": [{"measurement": "minimal effective concentration", "setting": "Ras protein", "result": "> 25", "unit": "µM"}, {"measurement": "pIC50", "setting": "[1]; [2]", "result": 4.77}, {"measurement": "pIC50", "setting": "[1]; [3]", "result": 4.91}]}, {"smiles": "Brc1ccc2c(c1)N=C(NCc1cccnc1)c1ccccc1N2", "note": "[Example 10, (8-Bromo-5H-dibenzo[b,e][1,4]diazepin-11-yl)-pyridin-3-ylmethyl-amine]", "values": [{"measurement": "pIC50", "setting": "[1]; [2]", "result": 4.44}, {"measurement": "pIC50", "setting": "[1]; [3]", "result": 5.22}]}, {"smiles": "Clc1ccc2c(c1)N=C(NCCn1ccnc1)c1ccccc1N2", "note": "[Example 4, (8-Chloro-5H-dibenzo[b,e][1,4]diazepin-11-yl)-(2-imidazol-1-yl-ethyl)-amine]", "values": [{"measurement": "minimal effective concentration", "setting": "Ras protein", "result": 5, "unit": "µM"}, {"measurement": "pIC50", "setting": "[1]; [2]", "result": 5.60}, {"measurement": "pIC50", "setting": "[1]; [3]", "result": 5.52}]}, {"smiles": "COc1ccc2c(c1)N=C(NCc1cccnc1)c1ccccc1N2", "note": "[Example 9, (8-Methoxy-5H-dibenzo[b,e][1,4]diazepin-11-yl)-pyridin-3-ylmethyl-amine]", "values": [{"measurement": "minimal effective concentration", "setting": "Ras protein", "result": 50, "unit": "µM"}, {"measurement": "pIC50", "setting": "[1]; [2]", "result": 4.80}, {"measurement": "pIC50", "setting": "[1]; [3]", "result": 4.57}]}, {"smiles": "c1ccc(COc2ccc3c(c2)N=C(NCc2cccnc2)c2ccccc2N3)cc1", "note": "[Example 12, (8-Benzyloxy-5H-dibenzo[b,e][1,4]diazepin-11-yl)-pyridin-3-ylmethyl-amine]", "values": [{"measurement": "minimal effective concentration", "setting": "Ras protein", "result": "> 50", "unit": "µM"}, {"measurement": "pIC50", "setting": "[1]; [2]", "result": 4.43}, {"measurement": "pIC50", "setting": "[1]; [3]", "result": "< 4.30"}]}, {"smiles": "Clc1ccc2c(c1)N=C(NCc1cccnc1)c1ccccc1S2", "note": "[Example 16, (8-Chloro-dibenzo[b,f][1,4]thiazepin-11-yl)pyridin-3-ylmethyl-amine]", "values": [{"measurement": "pIC50", "setting": "[1]; [2]", "result": 4.66}, {"measurement": "pIC50", "setting": "[1]; [3]", "result": 5.01}]}, {"smiles": "Cc1ccc2c(c1)N=C(NCc1cccnc1)c1ccccc1N2", "note": "[Example 8, (8-Methyl-5H-dibenzo[b,e][1,4]diazepin-11-yl)-pyridin-3-ylmethyl-amine]", "values": [{"measurement": "pIC50", "setting": "[1]; [2]", "result": 4.51}, {"measurement": "pIC50", "setting": "[1]; [3]", "result": 4.62}]}, {"smiles": "Clc1ccc2c(c1)N=C(NCc1cccnc1)c1ccccc1O2", "note": "[Example 18, (8-Chloro-dibenzo[b,f][1,4]oxazepin-11-yl)-pyridin-3-ylmethyl-amine]", "values": [{"measurement": "pIC50", "setting": "[1]; [2]", "result": 4.78}, {"measurement": "pIC50", "setting": "[1]; [3]", "result": 5.06}]}, {"smiles": "COc1cc2c(cc1OC)C(NCc1cccnc1)=Nc1cc(Cl)c(Cl)cc1N2", "note": "[Example 13, (7,8-Dichloro-2,3-dimethoxy-5H-dibenzo[b,e][1,4]diazepin-11-yl)-pyridin-3-ylmethyl-amine]", "values": [{"measurement": "pIC50", "setting": "[1]; [2]", "result": 4.30}, {"measurement": "pIC50", "setting": "[1]; [3]", "result": 4.52}]}, {"smiles": "O=S1(=O)c2ccc(Cl)cc2N=C(NCc2cccnc2)c2ccccc21", "note": "[Example 17, (8-Chloro-5,5-dioxo-5H-5λ^6-dibenzo[b,f][1,4]thiazepin-11-yl)-pyridin-3-ylmethyl-amine]", "values": [{"measurement": "pIC50", "setting": "[1]; [2]", "result": 5.21}, {"measurement": "pIC50", "setting": "[1]; [3]", "result": 5.30}]}, {"smiles": "Clc1ccc2c(c1)N=C(NCCc1cccnc1)c1ccccc1N2", "note": "[Example 3, (8-Chloro-5H-dibenzo[b,e][1,4]diazepin-11-yl)-(2-pyridin-3-yl-ethyl)-amine]", "values": [{"measurement": "minimal effective concentration", "setting": "Ras protein", "result": "> 50", "unit": "µM"}, {"measurement": "pIC50", "setting": "[1]; [2]", "result": 4.24}, {"measurement": "pIC50", "setting": "[1]; [3]", "result": 4.44}]}, {"smiles": "Clc1ccc2c(c1)N=C(NCCc1cnc[nH]1)c1ccccc1N2", "note": "[Example 2, (8-Chloro-5H-dibenzo[b,e][1,4]diazepin-11-yl)-[2-(3H-imidazol-4-yl)-ethyl]-amine]", "values": [{"measurement": "minimal effective concentration", "setting": "Ras protein", "result": 25, "unit": "µM"}, {"measurement": "pIC50", "setting": "[1]; [2]", "result": 5.52}, {"measurement": "pIC50", "setting": "[1]; [3]", "result": 5.62}]}, {"smiles": "Clc1ccc2c(c1)N=C(NCc1cccnc1)c1ccccc1N2", "note": "[Example 1, (8-Chloro-5H-dibenzo[b,e][1,4]diazepin-11-yl)pyridin-3-ylmethyl-amine]", "values": [{"measurement": "minimal effective concentration", "setting": "Ras protein", "result": 50, "unit": "µM"}, {"measurement": "pIC50", "setting": "[1]; [2]", "result": 5.30}, {"measurement": "pIC50", "setting": "[1]; [3]", "result": 5.43}]}, {"smiles": "c1cncc(CNC2=Nc3ccccc3Nc3ccccc32)c1", "note": "[Example 7, (5H-Dibenzo[b,e][1,4]diazepin-11-yl)-pyridin-3-ylmethyl-amine]", "values": [{"measurement": "minimal effective concentration", "setting": "Ras protein", "result": 50, "unit": "µM"}, {"measurement": "pIC50", "setting": "[1]; [2]", "result": 4.92}, {"measurement": "pIC50", "setting": "[1]; [3]", "result": 4.64}]}, {"smiles": "c1cncc(CNC2=Nc3ccccc3Nc3ncccc32)c1", "note": "[Example 14, (11H-Benzo[b]pyrido[2,3-e][1,4]diazepin-5-yl)-pyridin-3-ylmethyl-amine]", "values": [{"measurement": "minimal effective concentration", "setting": "Ras protein", "result": 50, "unit": "µM"}, {"measurement": "pIC50", "setting": "[1]; [2]", "result": 4.77}, {"measurement": "pIC50", "setting": "[1]; [3]", "result": 4.85}]}, {"smiles": "Clc1ccc2c(c1)N=C(NCCCn1ccnc1)c1ccccc1N2", "note": "[Example 5, (8-Chloro-5H-dibenzo[b,e][1,4]diazepin-11-yl)-(3-imidazol-1-yl-propyl)-amine]", "values": [{"measurement": "minimal effective concentration", "setting": "Ras protein", "result": 2.5, "unit": "µM"}, {"measurement": "pIC50", "setting": "[1]; [2]", "result": 5.35}, {"measurement": "pIC50", "setting": "[1]; [3]", "result": 5.17}]}, {"smiles": "Clc1ccc2c(c1)Nc1ccccc1C(NCc1cccnc1)=N2", "note": "[Example 6, (7-Chloro-5H-dibenzo[b,e][1,4]diazepin-11-yl)pyridin-3-ylmethyl-amine]", "values": [{"measurement": "minimal effective concentration", "setting": "Ras protein", "result": 50, "unit": "µM"}, {"measurement": "pIC50", "setting": "[1]; [2]", "result": 5.25}, {"measurement": "pIC50", "setting": "[1]; [3]", "result": 5.26}]}, {"smiles": "Clc1cc2c(cc1Cl)Nc1ccccc1C(NCc1cccnc1)=N2", "note": "[Example 11, (7,8-Dichloro-5H-dibenzo[b,e][1,4]diazepin-11-yl)-pyridin-3-ylmethyl-amine]", "values": [{"measurement": "minimal effective concentration", "setting": "Ras protein", "result": 50, "unit": "µM"}, {"measurement": "pIC50", "setting": "[1]; [2]", "result": 5.80}, {"measurement": "pIC50", "setting": "[1]; [3]", "result": 6.10}]}]}
